For assay [1], the target named is T1, hCRTH2 receptor (Homo sapiens (Human), UniProt Q9Y5Y4). The experiment in a line: hCRTH2 receptor membranes radioligand displacement assay (3H-PGD2). Conditions: 3H-PGD2 2.5 nM, HEK293-hCRTH2 membranes, Binding-Buffer with 0.1% BSA. As for the experimental part: Biological Assays: Preparation of hCRTH2 Receptor Membranes and Radioligand Displacement Assay:
(§1) First, recombinant HEK293-hCRTH2 cells were detached from culture plates into 5 ml buffer A/plate (Buffer A: 5 mM Tris, 1 mM MgCl2-6H2O pH=7.4) using a rubber policeman. Cells were then transferred into centrifugation tubes and centrifuged for 5 min at 400 g. The cell pellet was resuspended in the same buffer and tubes were frozen at −80° C. Cells were thawed and membrane fragments were generated by homogenization using a polytron homogenizer (30 seconds). The membrane fragments were then centrifuged at 3000 g for 20 minutes and resuspended in buffer C (Buffer C: 75 mM Tris, 25 mM MgCl2, 250 mM Saccharose pH 7.4). Aliquots of membrane fragements were stored at −20° C.
(§2) Binding assay was performed in a final assay volume of 250 μl. First, 25 μl of test compound, previously diluted in Binding-Buffer (Binding-Buffer: 50 mM Tris-Base, 100 mM NaCl, 1 mM EDTA, 0.1% BSA (protease free), 0.01% NaN3, 10 mM MnCl2 pH 7.0) was placed into each well. After addition of 75 μl Binding-Buffer, 50 μl of the radioligand ^3H-PGD2 (at 2.5 nM (220.000 dpm/well) from ANAWA ART0662) was added to each well. Binding assay was started by addition of 100 μl CRTH2 membrane fragments, reaching a final concentration of 20 μg/well. For non-specific binding, PGD2 was added to the reaction mixture to […] final concentration. This assay mix was incubated for 90 minutes at room temperature and then filtered through a GF/C filter 96-well plate which was pre-soaked for 3 hours in 0.5% polyethyleneimine (PEI). The filter-wells were washed three times with ice cold Binding-Buffer. Then, 40 μl of Microscint-40 (Packard) was added to each well and the retained radioactivity quantified in a Topcount (Packard).
In general terms: Displacement assays read how much labelled ligand stays bound in the presence of the test substance.

Assay [2] concerns the target T1, hCRTH2 receptor. The experiment in a line: Radioligand displacement assay in presence of human serum albumin (HSA). Particulars: 3H-PGD2 2.5 nM, Binding-Buffer with 0.5% HSA instead of 0.1% BSA. As for the experimental part: as §1, §2
Radioligand Displacement Assay-Human Serum Albumin (HSA):
Radioligand displacement assay in presence of human serum albumin (HSA) was performed as described above, with following modifications. Binding-Buffer-HSA: Binding-buffer+0.5% Sigma Albumin from Human serum A1887 (instead of 0.1% BSA). A volume of 25 μl test compound, previously diluted in Binding-Buffer-HSA was placed into each well. After addition of 75 μl Binding-Buffer-HSA, 50 μl of ^3H-PGD2 (at 2.5 nM (220.000 dpm/well) from ANAWA ART0662) was added to each well. Remaining protocol was identical as described above.

These results are taken from US8697869B2, “3-(heteroaryl-amino)-1,2,3,4-tetrahydro-9H-carbazole derivatives and their use as prostaglandin D2 receptor modulators” (Actelion Pharmaceuticals Ltd., priority 2010, dated 2014).

T1 sequence (Q9Y5Y4 whole entry, the tested form may be a part): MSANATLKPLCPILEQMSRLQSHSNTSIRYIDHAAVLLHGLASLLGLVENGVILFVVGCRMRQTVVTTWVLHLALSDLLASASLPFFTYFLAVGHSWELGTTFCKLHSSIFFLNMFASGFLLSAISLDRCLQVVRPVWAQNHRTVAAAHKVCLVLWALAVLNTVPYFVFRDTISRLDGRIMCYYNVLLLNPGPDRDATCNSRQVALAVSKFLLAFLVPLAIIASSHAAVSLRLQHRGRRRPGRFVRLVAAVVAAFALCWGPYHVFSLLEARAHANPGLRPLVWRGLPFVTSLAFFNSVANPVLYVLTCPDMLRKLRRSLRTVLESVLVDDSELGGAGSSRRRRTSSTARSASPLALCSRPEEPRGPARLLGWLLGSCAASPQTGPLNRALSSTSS

In general, IC50 refers to the concentration that inhibits the measured activity by half. On to `CN(c1nc(C(F)(F)F)cs1)C1CCc2c(c3cc(F)ccc3n2CC(=O)O)C1` (centres unmarked) [Example 47, 2-(6-fluoro-3-(methyl(4-(trifluoromethyl)thiazol-2-yl)amino)-3,4-dihydro-1H-carbazol-9(2H)-yl)acetic acid], for which the IC50 at hCRTH2 receptor [1] worked out at 0.014 µM; on hCRTH2 receptor [2], 0.402 µM.

`CN(c1ncc(C(F)(F)F)cn1)[C@@H]1CCc2c(c3cc(F)ccc3n2CC(=O)O)C1` [Example 12, (3R)-2-(6-fluoro-3-(methyl(5-(trifluoromethyl)pyrimidin-2-yl)amino)-3,4-dihydro-1H-carbazol-9(2H)-yl)acetic acid] displayed an IC50 at hCRTH2 receptor [1] of 0.141 µM.

Take `O=C(O)Cn1c2c(c3cc(F)ccc31)C[C@H](Nc1ncc(F)cn1)CC2` [Example 2, (3R)-2-(6-fluoro-3-((5-fluoropyrimidin-2-yl)amino)-3,4-dihydro-1H-carbazol-9-(2H)-yl)acetic acid]: the IC50 at hCRTH2 receptor [1] was found to be 0.027 µM.

Consider `CN(c1nc(C(F)(F)F)nc2ccccc12)[C@H]1CCc2c(c3cc(F)ccc3n2CC(=O)O)C1` [Example 22, (3S)-2-(6-fluoro-3-(methyl(2-(trifluoromethyl)quinazolin-4-yl)amino)-3,4-dihydro-1H-carbazol-9(2H)-yl)acetic acid], for which the IC50 at hCRTH2 receptor [1] amounted to 0.016 µM; at hCRTH2 receptor [2], 0.38 µM.

Take `CN(c1ccon1)C1CCc2c(c3cc(F)ccc3n2CC(=O)O)C1` (centres unmarked) [Example 51, 2-(6-fluoro-3-(isoxazol-3-yl(methyl)amino)-3,4-dihydro-1H-carbazol-9(2H)-yl)acetic acid]: the IC50 is 0.0064 µM on hCRTH2 receptor [1] and 0.053 µM at hCRTH2 receptor [2].

The compound `Cc1cc(C)nc(N(C)[C@H]2CCc3c(c4cc(F)ccc4n3CC(=O)O)C2)n1` [Example 16, (3S)-2-(3-((4,6-dimethylpyrimidin-2-yl)(methyl)amino)-6-fluoro-3,4-dihydro-1H-carbazol-9(2H)-yl)acetic acid] gave an IC50 on hCRTH2 receptor [1] of 0.125 µM.

On to `CN(c1ccn(C)n1)C1CCc2c(c3cc(F)ccc3n2CC(=O)O)C1` (centres unmarked) [Example 49, 2-(6-fluoro-3-(methyl(1-methyl-1H-pyrazol-3-yl)amino)-3,4-dihydro-1H-carbazol-9(2H)-yl)acetic acid], for which the IC50 on hCRTH2 receptor [1] came to 0.037 µM.

`O=C(O)Cn1c2c(c3cc(F)ccc31)C[C@@H](N(CC(F)F)c1ncc(Cl)cn1)CC2` [Example 41, (3S)-2-(3-((5-chloropyrimidin-2-yl)(2,2-difluoroethyl)amino)-6-fluoro-3,4-dihydro-1H-carbazol-9(2H)-yl)acetic acid]: the IC50 on hCRTH2 receptor [1] was 0.015 µM; at hCRTH2 receptor [2], 0.068 µM.

As to `CN(c1ncc(-c2ccccc2)cn1)[C@H]1CCc2c(c3cc(F)ccc3n2CC(=O)O)C1` [Example 30, (3S)-2-(6-fluoro-3-(methyl(5-phenylpyrimidin-2-yl)amino)-3,4-dihydro-1H-carbazol-9(2H)-yl)acetic acid], the IC50 was 0.011 µM on hCRTH2 receptor [1] and 0.041 µM on hCRTH2 receptor [2].

For `CN(c1ncc(Cl)cn1)C1CCc2c(c3cc(C(F)(F)F)ccc3n2CC(=O)O)C1` (centres unmarked) [Example 58, 2-(3-((5-chloropyrimidin-2-yl)(methyl)amino)-6-(trifluoromethyl)-3,4-dihydro-1H-carbazol-9(2H)-yl)acetic acid], the values for the IC50 on hCRTH2 receptor [1] and at hCRTH2 receptor [2] were 0.0035 µM and 0.015 µM, respectively.

On to `COc1cnc(N(C)[C@H]2CCc3c(c4cc(F)ccc4n3CC(=O)O)C2)nc1` [Example 31, (3S)-2-(6-fluoro-3-((5-methoxypyrimidin-2-yl)(methyl)amino)-3,4-dihydro-1H-carbazol-9(2H)-yl)acetic acid], for which the IC50 at hCRTH2 receptor [1] turned out to be 0.0072 µM; at hCRTH2 receptor [2], 0.043 µM.

On to `CN(c1nc(C(C)(C)C)cs1)C1CCc2c(c3cc(F)ccc3n2CC(=O)O)C1` (centres unmarked) [Example 46, 2-(3-((4-(tert-butyl)thiazol-2-yl)(methyl)amino)-6-fluoro-3,4-dihydro-1H-carbazol-9(2H)-yl)acetic acid], for which the IC50 on hCRTH2 receptor [1] stood at 0.073 µM.

Regarding `O=C(O)Cn1c2c(c3cc(F)ccc31)C[C@H](Nc1nccc(C(F)(F)F)n1)CC2` [Example 6, (3R)-2-(6-fluoro-3-((4-(trifluoromethyl)pyrimidin-2-yl)amino)-3,4-dihydro-1H-carbazol-9-(2H)-yl)acetic acid], on hCRTH2 receptor [1], the IC50 was determined as 0.046 µM.

In the case of `CN(c1ncc(Cl)cn1)C1CCc2c(c3cc(Cl)ccc3n2CC(=O)O)C1` (centres unmarked) [Example 54, 2-(6-chloro-3-((5-chloropyrimidin-2-yl)(methyl)amino)-3,4-dihydro-1H-carbazol-9(2H)-yl)acetic acid], the half-maximal inhibitory concentration (IC50) on hCRTH2 receptor [1] worked out at 0.002 µM; at hCRTH2 receptor [2] it was 0.003 µM.

Consider `Cc1cc(N(C)C2CCc3c(c4cc(F)ccc4n3CC(=O)O)C2)no1` (centres unmarked) [Example 52, 2-(6-fluoro-3-(methyl(5-methylisoxazol-3-yl)amino)-3,4-dihydro-1H-carbazol-9(2H)-yl)acetic acid], for which the figures for the IC50 on hCRTH2 receptor [1] and on hCRTH2 receptor [2] were 0.0074 µM and 0.058 µM, respectively.

In the case of `CN(c1nccc(C(F)(F)F)n1)[C@H]1CCc2c(c3cc(F)ccc3n2CC(=O)O)C1` [Example 13, (3S)-2-(6-fluoro-3-(methyl(4-(trifluoromethyl)pyrimidin-2-yl)amino)-3,4-dihydro-1H-carbazol-9(2H)-yl)acetic acid], the IC50 at hCRTH2 receptor [1] is 0.012 µM; on hCRTH2 receptor [2], 0.769 µM.

For `CN(c1cnc2ccccc2n1)[C@H]1CCc2c(c3cc(F)ccc3n2CC(=O)O)C1` [Example 44, (3S)-2-(6-fluoro-3-(methyl(quinoxalin-2-yl)amino)-3,4-dihydro-1H-carbazol-9(2H)-yl)acetic acid], the IC50 on hCRTH2 receptor [1] is 0.011 µM; at hCRTH2 receptor [2], 0.176 µM.

As for `CN(c1ncc(Cl)cn1)[C@@H]1CCc2c(c3cc(F)ccc3n2CC(=O)O)C1` [Example 10, (3R)-2-(3-((5-chloropyrimidin-2-yl)(methyl)amino)-6-fluoro-3,4-dihydro-1H-carbazol-9(2H)-yl)acetic acid], the IC50 at hCRTH2 receptor [1] is 0.058 µM.

Consider `CN(c1ncc(F)cn1)[C@@H]1CCc2c(c3cc(F)ccc3n2CC(=O)O)C1` [Example 8, (3R)-2-(6-fluoro-3-((5-fluoropyrimidin-2-yl)(methyl)amino)-3,4-dihydro-1H-carbazol-9(2H)-yl)acetic acid], for which, on hCRTH2 receptor [1], the IC50 turned out to be 0.042 µM.

With `CN(c1ncnc2ccccc12)[C@H]1CCc2c(c3cc(F)ccc3n2CC(=O)O)C1` [Example 21, (3S)-2-(6-fluoro-3-(methyl(quinazolin-4-yl)amino)-3,4-dihydro-1H-carbazol-9(2H)-yl)acetic acid], at hCRTH2 receptor [1], the IC50 worked out at 0.026 µM.

Compound `Cc1nc(N(C)[C@H]2CCc3c(c4cc(F)ccc4n3CC(=O)O)C2)c2ccccc2n1` [Example 23, (3S)-2-(6-fluoro-3-(methyl(2-methylquinazolin-4-yl)amino)-3,4-dihydro-1H-carbazol-9(2H)-yl)acetic acid] yielded an IC50 at hCRTH2 receptor [1] of 0.055 µM.

As to `Cc1ccnc(N(C)[C@H]2CCc3c(c4cc(F)ccc4n3CC(=O)O)C2)n1` [Example 17, (3S)-2-(6-fluoro-3-(methyl(4-methylpyrimidin-2-yl)amino)-3,4-dihydro-1H-carbazol-9(2H)-yl)acetic acid], at hCRTH2 receptor [1], the IC50 came to 0.107 µM.

Consider `O=C(O)Cn1c2c(c3cc(F)ccc31)C[C@H](Nc1ncc(C(F)(F)F)cn1)CC2` [Example 5, (3R)-2-(6-fluoro-3-((5-(trifluoromethyl)pyrimidin-2-yl)amino)-3,4-dihydro-1H-carbazol-9-(2H)-yl)acetic acid], for which the IC50 on hCRTH2 receptor [1] came out at 0.027 µM.

With `CN(c1cc(C(C)(C)C)on1)C1CCc2c(c3cc(F)ccc3n2CC(=O)O)C1` (centres unmarked) [Example 48, 2-(3-((5-(tert-butyl)isoxazol-3-yl)(methyl)amino)-6-fluoro-3,4-dihydro-1H-carbazol-9(2H)-yl)acetic acid], at hCRTH2 receptor [1], the half-inhibitory concentration (IC50) was determined as 0.072 µM.

In turn, `CC(C)N(c1ncc(Cl)cn1)[C@H]1CCc2c(c3cc(F)ccc3n2CC(=O)O)C1` [Example 26, (3S)-2-(3-((5-chloropyrimidin-2-yl)(isopropyl)amino)-6-fluoro-3,4-dihydro-1H-carbazol-9(2H)-yl)acetic acid] came in with an IC50 on hCRTH2 receptor [1] of 0.809 µM.

As for `CN(c1nccc(C(F)(F)F)n1)[C@@H]1CCc2c(c3cc(F)ccc3n2CC(=O)O)C1` [Example 14, (3R)-2-(6-fluoro-3-(methyl(4-(trifluoromethyl)pyrimidin-2-yl)amino)-3,4-dihydro-1H-carbazol-9(2H)-yl)acetic acid], the IC50 on hCRTH2 receptor [1] was determined as 0.067 µM.

As for `Cc1nnc(N(C)C2CCc3c(c4cc(F)ccc4n3CC(=O)O)C2)s1` (centres unmarked) [Example 50, 2-(6-fluoro-3-(methyl(5-methyl-1,3,4-thiadiazol-2-yl)amino)-3,4-dihydro-1H-carbazol-9(2H)-yl)acetic acid], the IC50 at hCRTH2 receptor [1] stood at 0.127 µM.
